# Measured values as given in patent publication US20130011480A1, “CYTOTOXIC THERAPY BY PROTON FLUX MODULATION” (priority 2011, published 2013).
# Counter-ions that a name gives are not always drawn. Like-named read-outs stand apart in the source and are kept apart here.
# How the values were obtained:
# proton pump = proton pump (Homo sapiens, UniProt P20648); conditions: compared with classical PPIs; cited from earlier work
# human breast cancer = conditions: chronic oral administration; cited from earlier work
# [1] = Cancer patients treated orally with acid-efflux inhibitor combinations: side effects; assay type: in vivo, human
# Procedure: Patients have been treated orally with a combination of drugs that inhibit the efflux of acid (H+, CO2, and/or lactic acid). Although these drugs tend to alkalinize the extracellular milieu of cancer cells, they may be administered in combinations that achieve a metabolic acidosis.
# Esomeprazole (vacuolar H+ ATPase pump inhibitor) was used either daily or every other day, with a dose ranging from 240 mg per day up to 320 mg per day, or more.
# Methazolamide (a carbonic anhydrase inhibitor) was used every other day with a dose ranging from 50 mg per day up to a maximum of 400 mg per day. […] Side effects were especially noticeable in a patient with elevated liver function tests due to metastatic disease to the liver.
# Amiloride (Na−H+ exchanger inhibitor and an inhibitor of urokinase plasminogen activator) was used daily at a dose of 20 mg per day, or more. Because amiloride is a potassium-sparing diuretic, with a propensity to cause hyperkalemia, HCTZ, at 25 mg 2 times per day was administered as well. In addition, the use of amiloride in combination with HCTZ has shown to inhibit metastases more effectively than when amiloride is used alone.
# NaHCO3 (Arm & Hammer Baking Soda) was used daily, in some cases, at a dose ranging from 5 grams to 30 grams per day, or more.
# Intravenous lactate and/or glucose (with or without insulin) are useful for potentiating this therapy. […]
# [2] = raises metabolic rate and promotes weight loss; cited from earlier work
# [3] = system: normal human hepatic cells; conditions: treated versus untreated cells; cited from earlier work
# hepatoblastoma cells = conditions: morphological observations and flow cytometry; cited from earlier work
# human melanoma [4] = conditions: well-tolerated doses; cited from earlier work
# Huh-7 cells = conditions: cited from earlier work
# [5] = system: subcutaneous xenografted Huh-7 cells; conditions: 1 or 10 mg/kg/d subcutaneously, 2 weeks, cited from earlier work
# [6] = system: isolated normal rat hepatocyte; conditions: 72 hours' treatment; read-out: 50% inhibitory concentrations (IC(50)); cited from earlier work
# human melanoma [7] = conditions: preadministration; cited from earlier work
# [8] = as low as; dose dependent; cited from earlier work
# [9] = system: Na+-independent Cl−/HCO3− exchange; conditions: cited from earlier work
# N-type Ca2+ channel = molecular target: T1, N-type Ca2+ channel (Homo sapiens, UniProt Q00975); conditions: calculated for 50 μM; cited from earlier work
# T1 construct: N-type Ca2+ channels of hippocampal CA1 neurons; host or cells: hippocampal CA1 neurons
# CA3 neurons [10] = conditions: 50 μM; CO2/HCO3−-buffered; cited from earlier work
# K+ channels = conditions: 100-500 μM; cited from earlier work
# CA3 neurons [11] = conditions: cited from earlier work
# [12] = system: high-voltage-activated Ca2+ channels; conditions: hippocampal CA1 neurons; cited from earlier work
# NHE1 = NHE1 (Homo sapiens, UniProt P19634); conditions: NHE1 inhibition; cited from earlier work
# NHE1, sequence (P19634 whole entry, species assumed): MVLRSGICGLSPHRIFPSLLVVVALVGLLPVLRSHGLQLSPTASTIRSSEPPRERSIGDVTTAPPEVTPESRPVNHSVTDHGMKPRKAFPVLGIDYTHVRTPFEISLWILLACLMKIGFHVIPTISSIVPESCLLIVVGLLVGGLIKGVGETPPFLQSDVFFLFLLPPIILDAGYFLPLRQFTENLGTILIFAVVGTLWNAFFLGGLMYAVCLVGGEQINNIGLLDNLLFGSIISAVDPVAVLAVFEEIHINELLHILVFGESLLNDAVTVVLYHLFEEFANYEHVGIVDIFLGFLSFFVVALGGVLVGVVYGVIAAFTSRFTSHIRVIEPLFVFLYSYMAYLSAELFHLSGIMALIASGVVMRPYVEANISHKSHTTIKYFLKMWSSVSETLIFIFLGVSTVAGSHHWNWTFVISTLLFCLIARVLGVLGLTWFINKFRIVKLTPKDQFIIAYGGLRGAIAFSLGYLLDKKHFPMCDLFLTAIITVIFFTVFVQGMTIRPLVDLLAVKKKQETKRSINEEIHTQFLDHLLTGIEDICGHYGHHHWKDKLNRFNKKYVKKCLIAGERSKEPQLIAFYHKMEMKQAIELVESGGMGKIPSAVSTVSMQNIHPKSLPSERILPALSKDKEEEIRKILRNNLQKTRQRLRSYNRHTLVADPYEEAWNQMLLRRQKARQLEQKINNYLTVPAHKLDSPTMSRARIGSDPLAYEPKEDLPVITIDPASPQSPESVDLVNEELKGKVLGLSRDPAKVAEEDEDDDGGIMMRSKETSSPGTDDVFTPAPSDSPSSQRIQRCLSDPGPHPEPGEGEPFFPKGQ
# proton pump, sequence (P20648 whole entry): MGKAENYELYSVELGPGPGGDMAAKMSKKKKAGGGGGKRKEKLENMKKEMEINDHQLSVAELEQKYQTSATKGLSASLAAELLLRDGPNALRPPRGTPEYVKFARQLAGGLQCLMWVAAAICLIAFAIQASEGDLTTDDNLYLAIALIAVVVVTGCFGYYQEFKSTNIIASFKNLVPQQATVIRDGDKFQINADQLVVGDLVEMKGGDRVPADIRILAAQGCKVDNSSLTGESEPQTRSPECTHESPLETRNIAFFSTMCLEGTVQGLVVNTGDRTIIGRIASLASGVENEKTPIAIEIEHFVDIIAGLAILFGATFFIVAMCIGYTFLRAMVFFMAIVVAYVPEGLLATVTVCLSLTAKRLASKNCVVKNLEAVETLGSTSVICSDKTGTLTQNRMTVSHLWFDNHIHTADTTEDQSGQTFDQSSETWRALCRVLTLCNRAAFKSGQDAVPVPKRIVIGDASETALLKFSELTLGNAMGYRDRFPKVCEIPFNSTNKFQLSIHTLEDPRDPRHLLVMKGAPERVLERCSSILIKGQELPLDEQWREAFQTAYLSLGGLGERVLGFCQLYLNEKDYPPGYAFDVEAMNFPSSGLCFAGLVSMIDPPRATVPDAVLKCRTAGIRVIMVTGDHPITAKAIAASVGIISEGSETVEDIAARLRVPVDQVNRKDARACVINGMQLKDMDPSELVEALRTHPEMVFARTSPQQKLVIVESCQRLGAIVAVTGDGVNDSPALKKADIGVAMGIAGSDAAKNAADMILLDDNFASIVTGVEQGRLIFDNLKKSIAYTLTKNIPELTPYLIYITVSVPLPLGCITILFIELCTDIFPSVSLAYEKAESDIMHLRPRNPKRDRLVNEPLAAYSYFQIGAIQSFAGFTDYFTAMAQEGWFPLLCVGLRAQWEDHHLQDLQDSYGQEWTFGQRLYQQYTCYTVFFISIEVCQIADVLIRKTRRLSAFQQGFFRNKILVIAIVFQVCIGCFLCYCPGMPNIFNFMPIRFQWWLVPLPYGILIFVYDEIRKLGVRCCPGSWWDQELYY
# proton pump, sequence (P51164 whole entry partner): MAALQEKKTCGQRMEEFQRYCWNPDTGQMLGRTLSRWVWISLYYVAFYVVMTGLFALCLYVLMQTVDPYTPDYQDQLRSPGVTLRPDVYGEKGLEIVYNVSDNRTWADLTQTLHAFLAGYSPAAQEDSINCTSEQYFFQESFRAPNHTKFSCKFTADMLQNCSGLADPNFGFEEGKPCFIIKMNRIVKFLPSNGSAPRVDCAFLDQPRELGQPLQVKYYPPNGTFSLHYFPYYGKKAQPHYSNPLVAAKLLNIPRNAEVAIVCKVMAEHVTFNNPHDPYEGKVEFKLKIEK
# T1 sequence (Q00975 whole entry): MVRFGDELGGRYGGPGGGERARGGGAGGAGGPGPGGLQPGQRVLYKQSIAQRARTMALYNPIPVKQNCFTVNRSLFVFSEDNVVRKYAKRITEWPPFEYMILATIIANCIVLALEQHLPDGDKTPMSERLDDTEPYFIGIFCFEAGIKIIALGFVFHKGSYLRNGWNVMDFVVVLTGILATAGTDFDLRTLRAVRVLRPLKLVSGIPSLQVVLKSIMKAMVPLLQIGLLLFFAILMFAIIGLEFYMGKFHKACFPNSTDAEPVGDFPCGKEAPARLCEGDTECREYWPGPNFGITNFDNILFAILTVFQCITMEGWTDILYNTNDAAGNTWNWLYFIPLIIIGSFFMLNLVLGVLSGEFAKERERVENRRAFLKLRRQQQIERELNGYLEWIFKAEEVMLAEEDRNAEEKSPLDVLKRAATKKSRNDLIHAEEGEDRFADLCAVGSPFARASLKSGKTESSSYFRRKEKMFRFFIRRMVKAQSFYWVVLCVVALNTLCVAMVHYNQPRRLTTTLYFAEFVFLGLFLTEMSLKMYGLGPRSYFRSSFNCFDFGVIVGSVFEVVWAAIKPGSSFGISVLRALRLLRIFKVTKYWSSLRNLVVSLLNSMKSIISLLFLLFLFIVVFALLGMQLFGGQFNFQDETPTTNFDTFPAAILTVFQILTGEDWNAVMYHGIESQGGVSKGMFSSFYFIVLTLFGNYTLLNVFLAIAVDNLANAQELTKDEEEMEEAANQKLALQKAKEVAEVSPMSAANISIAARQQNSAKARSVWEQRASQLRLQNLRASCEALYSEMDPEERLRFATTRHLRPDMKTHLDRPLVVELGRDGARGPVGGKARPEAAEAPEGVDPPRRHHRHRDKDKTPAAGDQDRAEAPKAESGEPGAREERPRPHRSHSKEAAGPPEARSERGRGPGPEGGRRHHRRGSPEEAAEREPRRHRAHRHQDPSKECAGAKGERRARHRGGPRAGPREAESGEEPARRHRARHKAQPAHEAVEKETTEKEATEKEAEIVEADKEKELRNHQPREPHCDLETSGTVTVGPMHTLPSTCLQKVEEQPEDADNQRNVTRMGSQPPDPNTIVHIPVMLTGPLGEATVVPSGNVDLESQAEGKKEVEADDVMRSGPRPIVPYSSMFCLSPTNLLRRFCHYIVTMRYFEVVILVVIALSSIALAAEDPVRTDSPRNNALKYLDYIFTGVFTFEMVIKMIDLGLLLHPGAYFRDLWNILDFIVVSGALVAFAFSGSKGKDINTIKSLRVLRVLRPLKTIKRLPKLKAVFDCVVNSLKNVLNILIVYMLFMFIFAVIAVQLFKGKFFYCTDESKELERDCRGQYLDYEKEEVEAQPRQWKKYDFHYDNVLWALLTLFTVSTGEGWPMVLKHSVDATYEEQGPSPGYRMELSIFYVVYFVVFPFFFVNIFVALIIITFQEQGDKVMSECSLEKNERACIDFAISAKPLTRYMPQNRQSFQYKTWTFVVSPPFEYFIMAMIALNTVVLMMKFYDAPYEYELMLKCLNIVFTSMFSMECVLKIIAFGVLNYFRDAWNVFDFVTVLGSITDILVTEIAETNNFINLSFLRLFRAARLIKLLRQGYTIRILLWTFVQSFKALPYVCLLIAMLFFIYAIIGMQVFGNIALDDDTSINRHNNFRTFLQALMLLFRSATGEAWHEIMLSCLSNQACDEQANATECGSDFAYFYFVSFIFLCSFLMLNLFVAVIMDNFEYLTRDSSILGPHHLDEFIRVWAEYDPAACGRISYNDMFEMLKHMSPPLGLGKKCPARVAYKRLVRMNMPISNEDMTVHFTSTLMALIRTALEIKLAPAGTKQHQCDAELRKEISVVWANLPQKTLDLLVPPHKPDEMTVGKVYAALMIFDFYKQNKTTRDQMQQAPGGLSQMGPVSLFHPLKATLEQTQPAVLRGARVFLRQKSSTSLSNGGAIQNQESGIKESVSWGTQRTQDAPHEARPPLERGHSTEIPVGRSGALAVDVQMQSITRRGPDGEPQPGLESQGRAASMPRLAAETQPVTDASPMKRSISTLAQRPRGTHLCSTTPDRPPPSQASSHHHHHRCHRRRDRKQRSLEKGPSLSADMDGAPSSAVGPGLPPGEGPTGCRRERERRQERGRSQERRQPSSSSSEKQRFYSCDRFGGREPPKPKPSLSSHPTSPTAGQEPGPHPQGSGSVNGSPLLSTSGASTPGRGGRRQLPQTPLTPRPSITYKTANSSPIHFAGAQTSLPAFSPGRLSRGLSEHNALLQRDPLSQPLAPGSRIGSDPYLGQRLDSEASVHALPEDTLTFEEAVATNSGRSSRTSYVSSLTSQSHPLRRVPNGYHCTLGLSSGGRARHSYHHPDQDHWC
compound,measurement,setting,value
COCCO[C@@H]1c2ccn3c(C)c(C)nc3c2N[C@H](c2ccccc2)[C@H]1O [Soraprazan],time to block H+ secretion,proton pump,within a half-hour
Cc1nc(Nc2ccc(F)cc2)nc(N2CCc3ccccc3C2C)c1C (stereo not drawn) [revaprazan],time to block H+ secretion,proton pump,within a half-hour
O=C([O-])O.[Na+] [sodium bicarbonate],expansion of primary tumors,human breast cancer,not influencing the expansion of primary tumors
same,"metastases in lung, visceral organs, and lymph nodes",human breast cancer,markedly reduces the number and size of metastases
same,side effects,"[1]; daily, 5 grams to 30 grams per day",bloating and abdominal discomfort
"O=[N+]([O-])c1ccc(O)c([N+](=O)[O-])c1 [DNP, dinitrophenol]",reasonably well tolerated daily dose,[2],3 to 5 mg/kg
"CO/C1=C\C(C)=C\[C@@H](C)[C@@H](O)[C@@H](C)C/C(C)=C/C=C/[C@H](OC)[C@@H]([C@@H](C)[C@@H](O)[C@H](C)[C@@]2(O)C[C@@H](O)[C@H](C)[C@@H](C(C)C)O2)OC1=O [Baf-A1, Bafilomycin A1]",inhibition of cell growth,[3],negligible
same,cellular reproduction and apoptosis,hepatoblastoma cells,inhibits hepatoblastoma cellular reproduction by inducing apoptosis
"COc1ccc2nc([S@@+]([O-])Cc3ncc(C)c(OC)c3C)[nH]c2c1 [esomeprazole, Esomeprazole]",tumor growth and survival,human melanoma [4],markedly impede tumor growth and prolong survival
"COC1=CC(c2ccc[nH]2)=N/C1=C\c1[nH]c(C)c2c1C(C)CCC2 (stereo not drawn) [cPrG-HCl, Cycloprodigiosin hydrochloride]",pHi,Huh-7 cells; lowered pHi,< 6.8
same,apoptosis,"Huh-7 cells; subG(1) population, DNA fragmentation, chromatin condensation",induced apoptosis
same,pathological changes in organs,[5],No pathological changes were observed in any organs
same,serum alanine transaminase levels,[5],remained within normal limits
same,tumor growth,[5]; compared with the control after 8 days,significantly inhibited tumor growth
same,IC50,[6],8.4 µM
COc1ccc2[nH]c([S+]([O-])Cc3ncc(C)c(OC)c3C)nc2c1 (stereo not drawn) [omeprazole],growth-retardant impact of cisplatin,human melanoma [7],potentiate the growth-retardant impact of cisplatin
N=C(N)NC(=O)c1nc(Cl)c(N)nc1N [amiloride],doses found effective,[8],≥ 0.3 mg/kg body weight per day
"O=S(=O)(O)c1cc(N=C=S)ccc1C=Cc1ccc(N=C=S)cc1S(=O)(=O)O [DIDS, 4,4′-diisothiocyanato-stilbene-2,2′-disulfonic acid]",alkalinization upon removal of extracellular Cl−,"[9]; 500 μM, pretreatment 15 min, n=3",completely abolished
"CC[C@@H](C(N)=O)N1CCCC1=O [LEV, levetiracetam]",reduction of N-type Ca2+ channel currents,N-type Ca2+ channel,ca. 15%
same,steady-state pHi after preincubation,CA3 neurons [10],6.82
same,inhibition of K+ channels,K+ channels,less than 20%
same,alkalinization upon removal of extracellular Cl−,"[9]; 50, preincubation 15 min, n=5",no effect
same,effect on pHi,CA3 neurons [11]; 1 μM (n=4),without any effect
same,effect on steady-state pHi,CA3 neurons [11]; 10 μM (n=3),Small shifts
same,steady-state pHi,"CA3 neurons [11]; 50 μM, Na+-free CO2/HCO3−-buffered solution, n=5",not likely further influenced
same,"mean acidification of steady-state pHi, nonresponding neurons excluded","CA3 neurons [11]; 50 μM, neuronal somata, CO2/HCO3−-buffered solution, n=8",0.19±0.07 pH units
same,mean acidification of steady-state pHi,"CA3 neurons [11]; 50 μM, neuronal somata, CO2/HCO3−-buffered solution, n=11",0.14±0.09 pH units
same,decrease of pHi,"CA3 neurons [11]; 50 μM, nominal absence of extracellular CO2/HCO3−, HEPES pH 7.4, n=5",abolished
same,decrease of pHi of larger regions,"CA3 neurons [11]; 50 μM, stratum pyramidale, CO2/HCO3−-buffered solution, n=5",0.11±0.04 pH units
same,effect on pHi,CA3 neurons [11]; increase to 100 μM (n=4),without additional effect
same,reduction of high-voltage-activated calcium currents,[12],about 20%
CC(=O)/N=c1/sc(S(N)(=O)=O)nn1C [Methazolamide],side effects,"[1]; every other day, 50 mg per day up to 400 mg per day","tingling in extremities, acidosis, fatigue, and nausea"
"CCN(c1nc(N)c(C(=O)N=C(N)N)nc1Cl)C(C)C [EIPA, 5-(N-ethyl-N-isopropyl)-amiloride]",potency relative to amiloride,NHE1,about 200 times
